Test results as given in article PMC6127852 (Journal of Enzyme Inhibition and Medicinal Chemistry, 2018).
Values after ≈ are worked out from the molar mass of the structure shown.

Assays:
[1] = system: E. coli ESBL; assay: Broth microdilution MIC, ESBL E. coli clinical strain; format: cell-based; details: Escherichia coli
[2] = system: E. coli ATCC 25925; assay: Broth microdilution MIC, E. coli ATCC 25925; format: cell-based; details: Escherichia coli, ATCC25925; Table S2
Protocol: (§1) The compounds were evaluated for their in vitro anti-bacterial activity against Gram-positive bacteria: S. aureus (ATCC 25923), MRSA, methicillin-sensitive S. aureus (MSSA), E. faecalis, vancomycin-resistant E. faecium (VREF), and Gram-negative bacteria: E. coli (ATCC 25925), P. aeruginosa (ATCC 27853), A. baumannii (ATCC 19606) and ESBL-producing K. pneumoniae (ATCC 27736). Standard broth microdilution method as recommended in guidelines of Clinical and Laboratory Standards Institute[61] ^, [65] ^, [66] was applied and the minimum inhibitory concentration (MIC) of compounds was tested. In short, testing was performed in U-bottomed 96-well sterile plastic microdilution trays (Falcon 3077, Becton Dickinson Labware, Franklin Lakes, NJ) in cation (Ca^2+ and Mg^2+) adjusted Mueller–Hinton broth medium (Becton Dickinson and Co., Cockeysville, MD). All testings were performed in triplicate.
(§2) The in vitro anti-bacterial activity of 5-amidinobenzimidazoles 7a–7e, 8a–8e, and 9a–9e was tested against Gram-positive bacteria including S. aureus (ATCC 25923), Enterococcus faecalis (ATCC 29212), and Gram-negative bacteria including E. coli (ATCC 25925), K. pneumoniae (ATCC 700803), P. aeruginosa (ATCC 27853), and Acinetobacter baumannii (ATCC 19606).

[3] = system: A. baumannii ATCC 19606; assay: Broth microdilution MIC, A. baumannii ATCC 19606; format: cell-based; details: Acinetobacter baumannii, ATCC19606; Table S2
Protocol: as §1, §2

[4] = system: K. pneumoniae ESBL; assay: Broth microdilution MIC, ESBL K. pneumoniae clinical strain; format: cell-based; details: Klebsiella pneumoniae
Protocol: as §1

[5] = system: polyA-polyU; assay: UV–Vis titration with polyA-polyU (Scatchard); format: binding; details: for Hypochromic effect H/%, polyA-polyU: UV–Vis titration, calculated by Scatchard equation; for Hypochromic effect H/%, polyA-polyU / log Ks, polyA-polyU: PBS, pH 7; for log Ks, polyA-polyU: binding constant, Scatchard
Protocol: (§3) Polynucleotides were purchased as follows: polyG–polyC, polyA–polyU (Sigma-Aldrich, St. Louis, MO), calf thymus ctDNA (Aldrich). Polynucleotides were dissolved in PBS buffer, I = 0.05 mol dm^−3, pH 7.0. The calf thymus ctDNA was additionally sonicated and filtered through a […] filter. The polynucleotide concentration was spectroscopically determined as the concentration of nucleobases.
(§4) All UV–Vis absorbance measurements were conducted on a Perkin Elmer Lambda 25 spectrophotometer (Perkin Elmer, Waltham, MA). A quartz cell with a 1 cm path length was used for all absorbance studies. Compound stock solutions were 1 mM. The DNA/RNA at increasing ratios was then titrated into the compound buffer solution (1.48 × 10^−5 mol dm^−3) and the corresponding absorption spectra were recorded under the same conditions. All data were graphed and analysed using Origin software version 9.0 (OriginLab Corporation, Northampton, MA). The stability constants (Ks) and [bound compound]/[polynucleotide phosphate] ratios (n) were calculated according to the Scatchard Equation[63] ^, [64]. Values for Ks and n given in Table 1 all have satisfying correlation coefficients (0.99).
(§5) The binding constants logKs and the density of the binding sites n were calculated using Scatchard plot analysis. In addition, the binding constants Ks for compounds 8b and 8e were calculated only for titration data taken at the r ≥ 0.1, because below that ratio changes in absorption maxima were too small for accurate calculation (ΔA ≤ 0.04) (Table 1). The binding constants Ks and ratios n obtained by processing UV–Vis titration data using the Scatchard equation are summarised in Table 1.

[6] = system: polyG-polyC (polyC-polyG) (RNA, polymer) G/C; assay: UV-Vis titration, Scatchard; details: PBS, I = 0.05 M (Table 1 says I = 0.015 M), cations not specified, I = 0.015 M (Methods: 0.05 M)
[7] = system: S. aureus MSSA; assay: Broth microdilution MIC, MSSA clinical strain; format: cell-based; details: Staphylococcus aureus
Protocol: as §1

[8] = system: polyA-polyU (RNA, polymer) A/U; assay: UV-Vis titration, Scatchard; details: PBS, I = 0.05 M (Table 1 says I = 0.015 M), cations not specified, I = 0.015 M (Methods: 0.05 M)
[9] = system: S. aureus ATCC 25923; assay: Broth microdilution MIC, S. aureus ATCC 25923; format: cell-based; details: Staphylococcus aureus, ATCC25923; Table S2
Protocol: as §1, §2

[10] = system: calf thymus ctDNA; assay: UV–Vis titration with ctDNA (Scatchard); format: binding; details: PBS, pH 7; for Hypochromic effect H/%, ctDNA: UV–Vis titration, calculated by Scatchard equation; for log Ks, ctDNA: binding constant, Scatchard
Protocol: as §3, §4, §5

[11] = system: ctDNA; assay: Thermal melting (ΔTm) of ctDNA; format: binding, calf; details: PBS, pH 7; for ΔTm, ctDNA, r = 0.3: r = [compound]/[polynucleotide] 0.3, error ±0.5 °C
Protocol: (§6) T m experiments were conducted with a Perkin Elmer Lambda 25 spectrophotometer in 1 cm quartz cuvettes. The absorbance of the DNA/RNA-compound complex was monitored at 260 nm as a function of temperature. The absorbance of the ligands was subtracted from every curve, and the absorbance scale was normalised. The ΔT m values were calculated by subtracting T m of the free nucleic acid from T m of the complex. Every reported ΔT m value was the average of at least two measurements. The error of ΔT m is ±0.5 °C. All data were graphed and analysed using Origin software version 9.0.
(§7) Denaturation experiments were carried out at different amounts of the compounds (r = 0.1, 0.3, 0.5, and 0.7 eq; r = [compound]/[polynucleotide]) with ctDNA and polyA-polyU.

[12] = system: S. aureus MRSA; assay: Broth microdilution MIC, MRSA clinical strain; format: cell-based; details: Staphylococcus aureus, antibiotic-resistant clinical strain
Protocol: as §1

[13] = system: K. pneumonia ATCC 700803; assay: Broth microdilution MIC, K. pneumoniae ATCC 700803; format: cell-based; details: Klebsiella pneumoniae, ATCC700803; Table S2
Protocol: as §1, §2

[14] = system: P. aeruginosa ESBL; assay: Broth microdilution MIC, ESBL P. aeruginosa clinical strain; format: cell-based; details: Pseudomonas aeruginosa
[15] = system: P. aeruginosa ATCC 27853; assay: Broth microdilution MIC, P. aeruginosa ATCC 27853; format: cell-based; details: Pseudomonas aeruginosa, ATCC27853; Table S2
Protocol: as §1, §2

[16] = system: E. faecium VRE; assay: Broth microdilution MIC, VRE clinical strain; format: cell-based; details: Enterococcus faecium
Protocol: as §1

[17] = target: polyC-polyG; assay: UV–Vis titration with polyC-polyG (Scatchard); format: binding; details: PBS, pH 7; for log Ks, polyC-polyG: binding constant, Scatchard; for Hypochromic effect H/%, polyC-polyG: UV–Vis titration, calculated by Scatchard equation
Protocol: as §3, §4, §5

[18] = system: bloodstream form T. brucei (strain 221); assay: Anti-trypanosomal screening, resazurin; format: cell-based; details: Trypanosoma brucei, mean of triplicate ± SEM
Protocol: Bloodstream form T. brucei (strain 221) were cultured in modified Iscove’s medium, as outlined[67] and trypanocidal assays were performed using 96-well microtitre plates. […] Resazurin was added after 48 h, the plates incubated for a further 16 h, and then read in a Spectramax plate reader (Molecular Devices Corporation, San Jose, CA). The data were analysed using GraphPad Prism (GraphPad, La Jolla, CA). Each drug concentration was tested in triplicate.

[19] = system: E. faecalis ATCC 29212; assay: Broth microdilution MIC, E. faecalis ATCC 29212; format: cell-based; details: Enterococcus faecalis, ATCC29212; Table S2
Protocol: as §1, §2

[20] = system: polyA-polyU; assay: Thermal melting (ΔTm) of polyA-polyU; format: binding; details: for ΔTm, polyA-polyU, r = 0.1: PBS, pH 7; for ΔTm, polyA-polyU, r = 0.3 / ΔTm, polyA-polyU, r = 0.5: first melting midpoint; for ΔTm, polyA-polyU, r = 0.3, second melting midpoint / ΔTm, polyA-polyU, r = 0.5, second melting midpoint: footnote c: biphasic melting curve
Protocol: as §6, §7

[21] = system: polyA-polyU (RNA, polymer) A/U; assay: UV melting at 260 nm; details: PBS, I = 0.05 M, cations not specified, pH 7, r = 0.3 [compound]/[polynucleotide]

SMILES: N=C(N)c1ccc2[nH]c(-c3ccc(OCc4cn(-c5ccccc5)nn4)cc3)nc2c1 [Compound 7a]
- MIC [1]: 4 µg/mL (≈ 9.77 µM)
- MIC [2]: 32 µg/mL (≈ 78.2 µM)
- MIC [3]: > 256 µg/mL
- MIC [4]: 8 µg/mL (≈ 19.5 µM)
- Hypochromic effect H/%, polyA-polyU [5]: 19.3%
- log Ks, polyA-polyU [5]: 5.24
- log Ks ([6]; pH 7, n fixed, per base): 6.44
- MIC [7]: 32 µg/mL (≈ 78.2 µM)
- log Ks ([8]; pH 7, per base): 5.24
- MIC [9]: 32 µg/mL (≈ 78.2 µM)
- Hypochromic effect H/%, ctDNA [10]: 7.8%
- log Ks, ctDNA [10]: 6.76
- ΔTm, ctDNA, r = 0.5 [11]: 4.84 °C
- ΔTm, ctDNA, r = 0.7 [11]: 4.69 °C
- ΔTm, ctDNA, r = 0.3 [11]: 2.46 °C
- MIC [12]: 16 µg/mL (≈ 39.1 µM)
- MIC [13]: 128 µg/mL (≈ 313 µM)
- MIC [14]: 128 µg/mL (≈ 313 µM)
- MIC [15]: 128 µg/mL (≈ 313 µM)
- MIC [16]: 32 µg/mL (≈ 78.2 µM)
- log Ks, polyC-polyG [17]: 6.44
- IC50 [18]: 8.6 ± 0.5 µM
- IC90 [18]: 16.2 ± 0.9 µM
- MIC [19]: 64 µg/mL (≈ 156 µM)
- ΔTm, polyA-polyU, r = 0.1 [20]: 1.74 °C
- ΔTm, polyA-polyU, r = 0.3 [20]: 1.74 °C
- ΔTm, polyA-polyU, r = 0.5 [20]: 2.53 °C
- ΔTm ([21]; error ±0.5, per base): 1.74 °C

SMILES: c1ccc(Cn2cc(COc3ccc(-c4nc5cc(C6=NCCN6)ccc5[nH]4)cc3)nn2)cc1 [Compound 9d]
- MIC [1]: 128 µg/mL (≈ 285 µM)
- MIC [2]: 128 µg/mL (≈ 285 µM)
- MIC [3]: > 256 µg/mL
- log Ks, polyA-polyU [5]: 5.89
- Hypochromic effect H/%, polyA-polyU (from experimental data) ([5]; footnote e: calculated from experimental data): 55.5 ^e %
- log Ks ([6]; pH 7, per base): 6.59
- MIC [7]: 64 µg/mL (≈ 142 µM)
- log Ks ([8]; pH 7, n fixed, per base): 5.89
- MIC [9]: 64 µg/mL (≈ 142 µM)
- Hypochromic effect H/%, ctDNA [10]: 24.6%
- log Ks, ctDNA [10]: 5.84
- ΔTm, ctDNA, r = 0.5 [11]: 3.52 °C
- ΔTm, ctDNA, r = 0.7 [11]: 2.60 °C
- ΔTm, ctDNA, r = 0.3 [11]: 3.31 °C
- MIC [12]: 64 µg/mL (≈ 142 µM)
- MIC [13]: > 256 µg/mL
- MIC [14]: 128 µg/mL (≈ 285 µM)
- MIC [15]: 128 µg/mL (≈ 285 µM)
- MIC [16]: 64 µg/mL (≈ 142 µM)
- Hypochromic effect H/%, polyC-polyG [17]: 5.89%
- log Ks, polyC-polyG [17]: 6.59
- IC50 [18]: 10.8 ± 0.4 µM
- IC90 [18]: > 25 µM
- MIC [19]: 128 µg/mL (≈ 285 µM)
- ΔTm, polyA-polyU, r = 0.1 [20]: 1.26 °C
- ΔTm, polyA-polyU, r = 0.3 [20]: 1.42 °C
- ΔTm, polyA-polyU, r = 0.3, second melting midpoint [20]: 10.30^c °C
- ΔTm, polyA-polyU, r = 0.5 [20]: 2.06 °C
- ΔTm, polyA-polyU, r = 0.5, second melting midpoint [20]: 13.29^c °C
- ΔTm ([21]; error ±0.5, biphasic, second midpoint 10.30, per base): 1.42 °C

SMILES: Cl.Cl.c1ccc(SCn2cc(COc3ccc(-c4nc5cc(C6=NCCN6)ccc5[nH]4)cc3)nn2)cc1 [Compound 9e, 5–(4,5-Dihydro-1H-imidazol-2-yl)-2–(4-((1-(phenylthiomethyl)-1H-1,2,3-triazol-4-yl)methoxy)phenyl)-1H-benz[d]imidazole dihydrochloride]
- MIC [1]: 64 µg/mL
- MIC [2]: 64 µg/mL
- MIC [3]: > 256 µg/mL
- Hypochromic effect H/%, polyA-polyU [5]: 31.6%
- log Ks, polyA-polyU [5]: 5.36
- log Ks ([6]; pH 7, n fixed, per base): 4.29
- MIC [7]: 64 µg/mL
- log Ks ([8]; pH 7, per base): 5.36
- MIC [9]: 32 µg/mL
- Hypochromic effect H/%, ctDNA [10]: 41.1%
- log Ks, ctDNA [10]: 6.21
- ΔTm, ctDNA, r = 0.5 [11]: 3.47 °C
- ΔTm, ctDNA, r = 0.7 [11]: 3.60 °C
- ΔTm, ctDNA, r = 0.3 [11]: 2.87 °C
- MIC [12]: 64 µg/mL
- MIC [13]: > 256 µg/mL
- MIC [14]: 64 µg/mL
- MIC [15]: 128 µg/mL
- MIC [16]: 32 µg/mL
- Hypochromic effect H/%, polyC-polyG [17]: 5.21%
- log Ks, polyC-polyG [17]: 4.29
- IC50 [18]: 9.7 ± 0.2 µM
- IC90 [18]: 14 ± 0.3 µM
- MIC [19]: 128 µg/mL
- ΔTm, polyA-polyU, r = 0.1 [20]: 1.11 °C
- ΔTm, polyA-polyU, r = 0.3 [20]: 0.47 °C
- ΔTm, polyA-polyU, r = 0.3, second melting midpoint [20]: 12.46^c °C
- ΔTm, polyA-polyU, r = 0.5 [20]: 0.47 °C
- ΔTm, polyA-polyU, r = 0.5, second melting midpoint [20]: 13.89^c °C
- melting point: 162 to 164 °C
